Literature values, collected in patent US20250064971A1, “SUSTAINED RELEASE FORMULATIONS AND METHODS OF USE THEREOF” (VIRGINIA COMMONWEALTH UNIVERSITY, priority 2022, published 2025).

Biological target: hERG (Homo sapiens, UniProt Q12809)
Conditions: compared to LAAM

Sequence of hERG (Q12809 whole entry): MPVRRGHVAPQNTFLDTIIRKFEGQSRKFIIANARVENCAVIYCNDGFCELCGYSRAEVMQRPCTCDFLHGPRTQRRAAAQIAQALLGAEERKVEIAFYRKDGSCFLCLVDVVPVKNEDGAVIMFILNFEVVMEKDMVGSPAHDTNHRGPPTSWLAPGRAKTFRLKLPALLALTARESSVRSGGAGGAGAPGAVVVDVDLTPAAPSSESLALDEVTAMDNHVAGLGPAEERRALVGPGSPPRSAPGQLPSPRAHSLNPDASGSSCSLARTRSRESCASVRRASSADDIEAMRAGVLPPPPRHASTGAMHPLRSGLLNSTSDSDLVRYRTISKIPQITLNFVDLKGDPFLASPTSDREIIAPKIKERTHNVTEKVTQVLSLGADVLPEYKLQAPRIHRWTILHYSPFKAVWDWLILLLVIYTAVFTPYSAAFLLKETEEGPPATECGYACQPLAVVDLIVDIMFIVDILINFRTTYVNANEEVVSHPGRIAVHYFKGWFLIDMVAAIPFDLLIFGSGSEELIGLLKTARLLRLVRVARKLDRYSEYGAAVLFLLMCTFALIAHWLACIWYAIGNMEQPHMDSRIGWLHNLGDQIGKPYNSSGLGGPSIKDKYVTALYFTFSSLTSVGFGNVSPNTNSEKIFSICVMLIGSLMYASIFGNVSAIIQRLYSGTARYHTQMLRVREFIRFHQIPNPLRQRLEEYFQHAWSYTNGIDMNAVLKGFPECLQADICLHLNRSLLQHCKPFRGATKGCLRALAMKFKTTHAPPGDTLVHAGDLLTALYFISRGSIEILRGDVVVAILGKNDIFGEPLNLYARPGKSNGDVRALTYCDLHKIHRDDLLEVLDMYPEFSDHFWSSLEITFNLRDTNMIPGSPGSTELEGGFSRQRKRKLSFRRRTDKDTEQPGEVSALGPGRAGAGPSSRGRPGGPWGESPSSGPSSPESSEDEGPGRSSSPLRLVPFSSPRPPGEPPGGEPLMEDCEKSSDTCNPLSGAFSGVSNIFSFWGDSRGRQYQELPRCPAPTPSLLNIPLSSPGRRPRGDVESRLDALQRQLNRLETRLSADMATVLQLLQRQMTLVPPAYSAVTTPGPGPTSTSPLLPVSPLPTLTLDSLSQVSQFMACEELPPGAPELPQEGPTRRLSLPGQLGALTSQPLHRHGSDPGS

CCC(OC(C)=O)C(CC(C)NC)(c1ccccc1)c1ccccc1 (stereo not shown) [nor-LAAM]
hERG inhibition IC50 (comparison in words): higher hERG inhibition IC50 than LAAM
